Assay results published in EP4813990A1, “COMPOUND FOR TREATING CANCER” (INNOLAKE BIOPHARMA (HANGZHOU) CO., LTD., priority 2023, dated 2025).

Experiments:
[1] = Plasma protein binding; format: in vitro ADME; settings: one range given for CD-1 mice, Sprague-Dawley rats, Beagle dogs and cynomolgus monkeys
[2] = molecular target: T1, CYP2C8 (Homo sapiens, UniProt P10632); assay: Human liver microsome CYP inhibition (direct and time-dependent); format: in vitro ADME
T1 construct: In vitro human liver microsome tests; from tissue; host or cells: human liver microsomes
Text: (§1) The non-dilution method was used to determine the time-dependent inhibitory effect of ILB-2109 on human liver microsomal cytochrome P450 isoenzymes (CYP1A2, CYP2B6, CYP2C8, CYP2C9, CYP2C19, CYP2D6 and CYP3A4). Generally, an IC50 shift multiple ≥1.5 was taken as the judgment standard for time-dependent inhibitors.

[3] = molecular target: T2, CYP1A2 (Homo sapiens, UniProt P05177); assay: as above; format: in vitro ADME
T2 construct: In vitro human liver microsome tests; from tissue; host or cells: human liver microsomes
Text: as §1

[4] = molecular target: T3, CYP3A4 (Homo sapiens, UniProt P08684); assay: as above; format: in vitro ADME; settings: for IC50: human liver microsomes
T3 construct: In vitro human liver microsome tests; from tissue; host or cells: human liver microsomes
Text: as §1

[5] = molecular target: T4, CYP2B6 (Homo sapiens, UniProt P20813); assay: as above; format: in vitro ADME
T4 construct: In vitro human liver microsome tests; from tissue; host or cells: human liver microsomes
Text: as §1

[6] = molecular target: T5, CYP2D6 (Homo sapiens, UniProt P10635); assay: as above; format: in vitro ADME
T5 construct: In vitro human liver microsome tests; from tissue; host or cells: human liver microsomes
Text: as §1

[7] = molecular target: T6, CYP2C19 (Homo sapiens, UniProt P33261); assay: as above; format: in vitro ADME
T6 construct: In vitro human liver microsome tests; from tissue; host or cells: human liver microsomes
Text: as §1

[8] = molecular target: T7, CYP2C9 (Homo sapiens, UniProt P11712); assay: as above; format: in vitro ADME
T7 construct: In vitro human liver microsome tests; from tissue; host or cells: human liver microsomes
Text: as §1

[9] = Excretion of total radioactivity in intact rats; format: in vivo
Procedure: Excretion mainly occurred within 48 hours after administration, accounting for about 88.01% of the administered dose.

[10] = 4-week repeated-dose toxicity test in cynomolgus monkeys; format: in vivo
Text: (§2) In accordance with the relevant requirements of the Good Laboratory Practice for Non-clinical Drug Studies issued by the National Medical Products Administration of the People's Republic of China, and following the test protocol and revisions, the safety pharmacology test, single-dose toxicity, genetic toxicity, etc. of ILB-2109 were explored.
40 cynomolgus monkeys (half male and half female) were randomly divided into 4 groups with 5 animals per gender in each group, and given intragastric administration of 0 (vehicle), 20, 60 and 200 mg/kg/day ILB-2109 once a day for 28 consecutive days. […] Combined with gross observation and histopathological examination results, the cause of animal death was considered to be related to lung injury. […] All the above changes completely recovered during the recovery period. In addition, no drug-related changes were found in body temperature, respiration, electrocardiogram, ophthalmic examination and bone marrow. There was no gender difference in systemic exposure in each dose group; no obvious accumulation; the increase ratio of systemic exposure was lower than the increase ratio of dose.
Attention should be paid to the potential impact of ILB-2109 on respiratory system, blood system, endocrine system and other systems in clinical use.

[11] = Plasma protein binding; format: in vitro ADME; settings: human plasma
[12] = Single-dose toxicity study in rats; settings: Sprague-Dawley, rat, in vivo, po; SD rats, single intragastric administration, observed for 14 days; read-out: maximum tolerated dose (MTD)
Procedure: as §2
SD rats were given single intragastric administration of ILB-2109 and observed for 14 days. The single doses were 0 (vehicle), 500, 1000 and 2000 mg/kg ILB-2109. […] No abnormalities were found in body weight, food consumption, clinical examination and gross anatomy. Under the test conditions, the maximum tolerated dose (MTD) of ILB-2109 in rats was 2000 mg/kg.

[13] = tested on: bone marrow polychromatic erythrocytes; assay: Micronucleus test; format: in vivo; settings: SD rats, intragastric 500 ~ 2000 mg/kg
Procedure: SD rats were given intragastric administration of 500 ~ 2000 mg/kg ILB-2109.

[14] = molecular target: A2aR (Homo sapiens, UniProt P29274); assay: Inhibition of binding of A2aR to its isotopically labeled ligand
Text: (§3) Meanwhile, ILB-2109 had high selectivity for A2aR (compared with A1, A2b and A3 receptors, the selectivity was 18.9 times, 40.7 times and 3424.7 times respectively).

[15] = Single-dose toxicity study in cynomolgus monkeys; settings: cynomolgus monkey, in vivo, po, single intragastric administration within 24 h, observed 14 days, read-out: maximum tolerated dose (MTD)
Procedure: as §2
Cynomolgus monkeys were given single intragastric administration of 0 (vehicle), 250, 500 and 1000 mg/kg ILB-2109 and observed continuously for 14 days after single administration. […] Within 30 min ~ 4 h after administration on the day of administration, mild vomiting (a small amount of food-like vomit) occurred in medium and high-dose groups. No abnormalities were found in body weight, food consumption, body temperature, respiration, electrocardiogram, blood routine, ophthalmic examination, clinical examination, bone marrow and gross anatomy. Under the test conditions, the maximum tolerated dose (MTD) of cynomolgus monkeys given single intragastric administration of ILB-2109 within 24 h was 1000 mg/kg. The test substance had effects on digestive system (gastrointestinal function, liver function).

[16] = molecular target: A1 receptor (Homo sapiens, UniProt P30542); assay: Adenosine receptor selectivity, A2aR compared with A1; format: binding
Text: as §3

[17] = molecular target: A3 receptor (Homo sapiens, UniProt P0DMS8); assay: Adenosine receptor selectivity, A2aR compared with A3; format: binding
Text: as §3

[18] = tested on: CHL cells; assay: Chromosome aberration test; format: cell-based; settings: CHL cells treated at 3.2, 16.0 and 80.0 µg/mL
Text: The test observed the effect of ILB-2109 on chromosome structure and number of mammalian cells (CHL cells).

[19] = non-dilution method, IC50 shift multiple ≥1.5 as judgment standard
[20] = 0-168 hours after single oral administration
[21] = female, cynomolgus monkey, in vivo, 20 mg/kg
[22] = female, cynomolgus monkey, in vivo, 60 mg/kg
[23] = male, cynomolgus monkey, in vivo, 20 mg/kg
[24] = male, cynomolgus monkey, in vivo, 60 mg/kg

T3 sequence (P08684 2-503): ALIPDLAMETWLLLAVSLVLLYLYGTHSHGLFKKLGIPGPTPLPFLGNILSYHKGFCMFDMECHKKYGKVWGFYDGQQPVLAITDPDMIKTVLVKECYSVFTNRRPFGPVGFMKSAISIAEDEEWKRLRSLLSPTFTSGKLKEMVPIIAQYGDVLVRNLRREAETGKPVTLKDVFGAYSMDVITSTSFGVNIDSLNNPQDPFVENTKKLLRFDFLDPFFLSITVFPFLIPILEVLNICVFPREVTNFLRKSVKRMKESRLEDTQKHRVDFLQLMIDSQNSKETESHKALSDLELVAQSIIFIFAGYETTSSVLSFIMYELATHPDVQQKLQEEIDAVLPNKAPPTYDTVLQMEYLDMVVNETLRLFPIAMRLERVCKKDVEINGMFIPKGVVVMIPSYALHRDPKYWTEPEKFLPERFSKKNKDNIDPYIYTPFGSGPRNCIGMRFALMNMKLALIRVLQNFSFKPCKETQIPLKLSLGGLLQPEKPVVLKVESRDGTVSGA
T6 sequence (P33261 whole entry): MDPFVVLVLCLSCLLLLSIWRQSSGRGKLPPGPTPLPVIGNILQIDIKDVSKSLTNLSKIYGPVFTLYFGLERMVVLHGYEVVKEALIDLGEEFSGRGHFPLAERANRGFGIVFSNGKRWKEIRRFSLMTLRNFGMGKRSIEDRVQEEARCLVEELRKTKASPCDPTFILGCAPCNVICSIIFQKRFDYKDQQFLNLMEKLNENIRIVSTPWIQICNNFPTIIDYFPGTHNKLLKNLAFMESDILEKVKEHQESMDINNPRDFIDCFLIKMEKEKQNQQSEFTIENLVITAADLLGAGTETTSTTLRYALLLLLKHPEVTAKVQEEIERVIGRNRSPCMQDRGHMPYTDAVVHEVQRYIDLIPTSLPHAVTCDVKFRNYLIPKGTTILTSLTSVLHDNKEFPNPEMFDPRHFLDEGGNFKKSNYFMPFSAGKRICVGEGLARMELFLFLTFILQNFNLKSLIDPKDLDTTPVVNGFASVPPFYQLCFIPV
T2 sequence (P05177 whole entry): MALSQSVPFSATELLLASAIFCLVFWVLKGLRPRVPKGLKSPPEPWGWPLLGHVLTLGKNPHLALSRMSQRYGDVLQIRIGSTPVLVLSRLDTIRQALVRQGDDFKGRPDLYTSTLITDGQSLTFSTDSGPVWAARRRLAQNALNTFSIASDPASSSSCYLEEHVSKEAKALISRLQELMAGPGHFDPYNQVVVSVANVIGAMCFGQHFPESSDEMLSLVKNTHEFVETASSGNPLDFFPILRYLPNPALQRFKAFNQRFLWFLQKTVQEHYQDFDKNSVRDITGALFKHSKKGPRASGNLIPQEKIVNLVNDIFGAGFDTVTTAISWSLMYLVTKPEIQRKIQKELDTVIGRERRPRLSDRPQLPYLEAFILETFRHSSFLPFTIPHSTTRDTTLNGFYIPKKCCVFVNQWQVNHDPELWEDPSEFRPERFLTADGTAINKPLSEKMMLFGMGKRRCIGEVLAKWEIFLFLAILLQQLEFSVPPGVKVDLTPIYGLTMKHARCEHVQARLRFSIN
T5 sequence (P10635 whole entry): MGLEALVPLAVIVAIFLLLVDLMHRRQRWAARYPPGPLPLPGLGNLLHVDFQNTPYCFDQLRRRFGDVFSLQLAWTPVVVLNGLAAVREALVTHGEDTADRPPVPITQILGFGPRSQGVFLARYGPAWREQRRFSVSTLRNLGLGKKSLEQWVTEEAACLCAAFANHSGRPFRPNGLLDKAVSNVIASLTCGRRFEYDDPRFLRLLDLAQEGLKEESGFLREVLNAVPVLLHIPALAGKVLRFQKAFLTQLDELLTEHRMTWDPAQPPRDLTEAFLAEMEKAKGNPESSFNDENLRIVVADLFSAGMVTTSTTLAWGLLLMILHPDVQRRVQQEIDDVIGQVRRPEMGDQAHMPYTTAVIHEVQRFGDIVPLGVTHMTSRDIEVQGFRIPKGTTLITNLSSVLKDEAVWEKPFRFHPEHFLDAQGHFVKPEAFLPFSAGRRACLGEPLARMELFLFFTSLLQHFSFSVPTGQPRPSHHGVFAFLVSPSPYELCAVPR
T7 sequence (P11712 whole entry): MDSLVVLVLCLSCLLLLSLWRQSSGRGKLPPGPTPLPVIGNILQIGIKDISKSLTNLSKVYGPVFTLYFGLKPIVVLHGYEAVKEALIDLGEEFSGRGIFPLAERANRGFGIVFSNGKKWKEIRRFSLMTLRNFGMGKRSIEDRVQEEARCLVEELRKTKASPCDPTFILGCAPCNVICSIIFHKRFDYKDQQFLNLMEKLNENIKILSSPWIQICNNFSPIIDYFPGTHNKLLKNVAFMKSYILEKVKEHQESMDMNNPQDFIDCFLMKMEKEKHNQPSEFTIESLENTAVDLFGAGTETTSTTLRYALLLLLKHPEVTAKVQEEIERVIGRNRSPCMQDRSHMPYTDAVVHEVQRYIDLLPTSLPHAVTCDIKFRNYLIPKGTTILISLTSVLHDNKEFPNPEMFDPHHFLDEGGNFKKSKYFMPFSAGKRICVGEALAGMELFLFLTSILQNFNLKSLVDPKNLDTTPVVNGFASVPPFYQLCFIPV
T4 sequence (P20813 whole entry): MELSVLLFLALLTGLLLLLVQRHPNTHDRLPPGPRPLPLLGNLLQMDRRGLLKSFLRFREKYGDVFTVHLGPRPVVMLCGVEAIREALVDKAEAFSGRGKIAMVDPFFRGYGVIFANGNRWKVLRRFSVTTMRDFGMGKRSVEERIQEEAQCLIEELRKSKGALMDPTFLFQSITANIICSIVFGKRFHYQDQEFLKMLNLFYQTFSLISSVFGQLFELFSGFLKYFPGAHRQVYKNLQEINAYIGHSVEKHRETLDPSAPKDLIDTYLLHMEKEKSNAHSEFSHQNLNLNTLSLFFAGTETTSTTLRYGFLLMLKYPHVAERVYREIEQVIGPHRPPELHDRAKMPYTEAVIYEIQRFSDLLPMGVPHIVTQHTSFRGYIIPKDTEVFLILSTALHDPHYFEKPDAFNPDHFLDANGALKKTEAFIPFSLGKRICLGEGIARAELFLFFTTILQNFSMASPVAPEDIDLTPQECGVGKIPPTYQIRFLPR
T1 sequence (P10632 whole entry): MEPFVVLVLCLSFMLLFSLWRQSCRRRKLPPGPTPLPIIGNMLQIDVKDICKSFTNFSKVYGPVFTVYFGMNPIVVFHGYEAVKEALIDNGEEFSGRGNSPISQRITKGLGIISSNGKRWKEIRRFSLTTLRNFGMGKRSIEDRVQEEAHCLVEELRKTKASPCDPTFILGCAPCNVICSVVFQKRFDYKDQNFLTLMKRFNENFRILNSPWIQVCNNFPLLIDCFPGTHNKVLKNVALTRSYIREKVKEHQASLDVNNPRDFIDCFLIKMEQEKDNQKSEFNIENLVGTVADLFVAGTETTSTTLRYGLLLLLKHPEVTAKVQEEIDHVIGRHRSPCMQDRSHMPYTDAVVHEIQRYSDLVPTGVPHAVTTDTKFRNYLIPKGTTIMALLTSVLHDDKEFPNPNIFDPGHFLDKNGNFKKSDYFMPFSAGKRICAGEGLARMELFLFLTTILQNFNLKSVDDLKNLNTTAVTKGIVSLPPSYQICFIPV
Chain of A3 receptor (P0DMS8 whole entry): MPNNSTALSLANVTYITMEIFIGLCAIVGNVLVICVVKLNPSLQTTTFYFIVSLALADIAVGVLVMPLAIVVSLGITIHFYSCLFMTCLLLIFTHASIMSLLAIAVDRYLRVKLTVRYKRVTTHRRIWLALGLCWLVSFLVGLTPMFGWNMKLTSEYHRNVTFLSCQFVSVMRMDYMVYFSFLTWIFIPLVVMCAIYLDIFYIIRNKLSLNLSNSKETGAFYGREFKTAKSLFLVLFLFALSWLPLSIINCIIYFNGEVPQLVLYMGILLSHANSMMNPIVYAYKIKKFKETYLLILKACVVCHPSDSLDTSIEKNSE
Chain of A1 receptor (P30542 whole entry): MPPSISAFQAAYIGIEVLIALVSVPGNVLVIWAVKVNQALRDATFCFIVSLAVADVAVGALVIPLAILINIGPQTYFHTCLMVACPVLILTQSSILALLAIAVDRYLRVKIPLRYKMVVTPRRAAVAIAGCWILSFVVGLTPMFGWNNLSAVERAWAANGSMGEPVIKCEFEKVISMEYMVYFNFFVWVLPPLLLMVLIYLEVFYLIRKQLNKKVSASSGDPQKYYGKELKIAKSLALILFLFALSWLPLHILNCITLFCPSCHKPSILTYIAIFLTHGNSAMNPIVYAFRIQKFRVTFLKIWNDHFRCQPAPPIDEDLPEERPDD
Chain of A2aR (P29274 whole entry): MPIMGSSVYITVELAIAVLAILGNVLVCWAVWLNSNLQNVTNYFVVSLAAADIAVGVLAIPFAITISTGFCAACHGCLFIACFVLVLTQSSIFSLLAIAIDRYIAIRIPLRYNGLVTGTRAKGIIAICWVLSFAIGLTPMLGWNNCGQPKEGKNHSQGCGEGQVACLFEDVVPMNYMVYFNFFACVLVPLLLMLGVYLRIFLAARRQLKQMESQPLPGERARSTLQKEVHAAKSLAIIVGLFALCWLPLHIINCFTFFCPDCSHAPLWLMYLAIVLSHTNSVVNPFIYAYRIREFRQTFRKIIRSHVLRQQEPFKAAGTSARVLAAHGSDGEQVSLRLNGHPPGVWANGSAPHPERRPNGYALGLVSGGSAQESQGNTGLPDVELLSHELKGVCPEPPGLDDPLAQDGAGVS

Cc1cc(-c2c(-c3ccccc3)nc(N)n3nc(CO)nc23)cc(C(F)(F)F)n1 [ILB-2109]
binding rate in plasma [1]: 87.3%-95.0% | IC50 ([2]; human liver microsomes): 33.9 µM | time-dependent inhibitory effect [2, 19]: no time-dependent inhibitory effect | IC50 ([3]; human liver microsomes): > 100 µM | time-dependent inhibitory effect [3, 19]: no time-dependent inhibitory effect | IC50 ([4]; midazolam as substrate): > 100 µM | IC50 ([4]; testosterone as substrate): > 100 µM | time-dependent inhibitory effect [4, 19]: no time-dependent inhibitory effect | IC50 ([5]; human liver microsomes): > 100 µM | time-dependent inhibitory effect [5, 19]: no time-dependent inhibitory effect | IC50 ([6]; human liver microsomes): > 100 µM | time-dependent inhibitory effect [6, 19]: no time-dependent inhibitory effect | IC50 ([7]; human liver microsomes): 91.6 µM | time-dependent inhibitory effect [7, 19]: no time-dependent inhibitory effect | IC50 ([8]; human liver microsomes): 57.2 µM | time-dependent inhibitory effect [8, 19]: no time-dependent inhibitory effect | average of total radioactivity recovery [9, 20]: 91.74% | cage washing and cleaning fluid, share of the administered dose [9, 20]: 2.75% | feces, share of the administered dose [9, 20]: 75.17% | total urinary excretion, share of the administered dose [9, 20]: 13.81% | excretion within 48 hours, share of the administered dose ([9]; within 48 hours after administration): about 88.01% | NOAEL at 28 days ([10]; both sexes, cynomolgus monkey, in vivo, po): 20 mg/kg | mortality ([10]; cynomolgus monkeys, high-dose group 200 mg/kg/day, death considered related to lung injury): 1 male animal in the high-dose group was found dying 2 h after administration on D3 | HNSTD ([10]; cynomolgus monkeys, intragastric once a day, 28 consecutive days): 60 mg/kg | AUC(0-t) [10, 21]: 61 µg·h/mL | Cmax [10, 21]: 5010 ng/mL | AUC(0-t) [10, 22]: 149 µg·h/mL | Cmax [10, 22]: 11900 ng/mL | AUC(0-t) [10, 23]: 80.2 µg·h/mL | Cmax [10, 23]: 6580 ng/mL | AUC(0-t) [10, 24]: 206 µg·h/mL | Cmax [10, 24]: 14300 ng/mL | binding rate in plasma [11]: 95.1-95.8% | MTD at 14 days [12]: 2000 mg/kg | micronucleus induction [13]: no micronucleus-inducing effect | IC50 [14]: 0.00292 µM | MTD at 14 days [15]: 1000 mg/kg | selectivity for A2aR compared with A1 receptor [16]: 18.9 times | selectivity for A2aR compared with A3 receptor [17]: 3424.7 times | chromosome aberration test result [18]: negative
